These results are taken from US10954214B2 (Janssen Pharmaceutica NV, priority 2016, dated 2021).

In test [1] the target is full-length MALT1 protein (Strep-MALT1(1-824)-His) (Homo sapiens (Human), UniProt Q9UDY8). Put plainly: MALT1 Biochemical Protease Assay (Ac-LRSR-AMC substrate). Particulars: 10 nM FL MALT1, 200 μM Ac-LRSR-AMC, 4 h at RT; read-out: MALT1_Biochemical activity (Ac-LRSR-amc) IC50. The method in brief: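 Full-length MALT1 pre-incubated with compounds (30 μM to 0.5 nM, 11 threefold steps) for 50 min at RT. After Ac-LRSR-AMC was added, the reaction ran 4 h at RT and AMC fluorescence was read. IC50 and Hill slope from curve fitting against no-enzyme and no-compound controls.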

For test [2], the system named is IL6 secretion by TMD8 ABC-DLBCL cells. Put plainly: Human IL6 Mesoscale assay (TMD-8). In kind it is cell-based. The note with it: Homo sapiens, TMD8; TMD-8 cells, 24 h. The method in brief: (§1)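 100,000 cells/well treated with compound in 9 twofold steps from 15 μM to 58.6 nM (0.3% DMSO) for 24 h at 37° C; supernatant cytokine measured by MSD electrochemiluminescence sandwich immunoassay. DMSO wells set maximum signal, BTK inhibitor RN486 (30 nM to 131 pM) set maximum inhibition.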

For another test, the system named is TMD8 cells. Put plainly: 4-day proliferation assay, TMD8. The format is cell-based. Particulars: Homo sapiens, 96 h, 4 days incubation, CellTiterGLO, read-out: Anti-proliferation: TMD-8 IC50. The protocol: (§2) To assess anti-proliferative effects, MALT1 inhibitor test compounds were tested in 4-day proliferation assays using three different DLBCL cell lines.
(§3) Cells should be kept between 0.5-2.5 million cells per mL during culturing and cells should be supplemented every 2-3 days with fresh 50 μM beta-mercaptoenthanol. No beta-mercaptoethanol is used during the proliferation assay. OCI-Ly7 cells were propagated in IMDM (ThermoFisher) supplemented with 10% fetal bovine serum (HyClone), 2 mM L-glutamine (Sigma Aldrich) and 50 μg/mL Gentamycin. Cell passage numbers should not exceed 30 (for OCI-Ly3 cells with passage number lower than 10 were used).
(§4) 10,000 TMD8, 10,000 OCI-Ly3 or 2,000 OCI-Ly7 cells were seeded in 100 μL media per well and incubated for 4 days at 37° C. and 5% CO2. Cell plating numbers were chosen based on growth curves to ensure linear cell growth. After 4 days of incubation 50 μL CellTiterGLO reagent (Promega) were added to each well and luminescence was measured on the Envision after 10 min of incubation at room temperature.
(§5) LC=median of the low control values
(§6) An estimate of the slope of the plot in terms of the Hill coefficient was also obtained.
(Cellular ATP, detected with luciferase, serves as a proxy for viable cell number.)

The test system of the next test is OCI-Ly3 cells. The experiment in a line: 4-day proliferation assay, OCI-Ly3. The format is cell-based, human. The note with it: Homo sapiens, 96 h, 4 days incubation, CellTiterGLO, read-out: Anti-proliferation: OCI-LY-3 IC50. The protocol: as §2, §3, §4, §5, §6
In test [3] the test system is IL10 secretion by TMD8 ABC-DLBCL cells. The experiment in a line: Human IL10 Mesoscale assay (TMD-8). In kind it is cell-based. Particulars: Homo sapiens, TMD8; TMD-8 cells, 24 h. The essentials:
as §1

The test system of test [4] is IL10 secretion by OCI-LY3 ABC-DLBCL cells. The experiment in a line: Human IL10 Mesoscale assay (OCI-LY3). The format is cell-based. Particulars: Homo sapiens, 24 h. The method in brief: as §1
Test [5] has as its system IL6 secretion by OCI-LY3 ABC-DLBCL cells. The experiment in a line: Human IL6 Mesoscale assay (OCI-LY3). In kind it is cell-based. The note with it: Homo sapiens, 24 h. The method in brief:
as §1

full-length MALT1 protein (Strep-MALT1(1-824)-His), sequence (Q9UDY8 whole entry): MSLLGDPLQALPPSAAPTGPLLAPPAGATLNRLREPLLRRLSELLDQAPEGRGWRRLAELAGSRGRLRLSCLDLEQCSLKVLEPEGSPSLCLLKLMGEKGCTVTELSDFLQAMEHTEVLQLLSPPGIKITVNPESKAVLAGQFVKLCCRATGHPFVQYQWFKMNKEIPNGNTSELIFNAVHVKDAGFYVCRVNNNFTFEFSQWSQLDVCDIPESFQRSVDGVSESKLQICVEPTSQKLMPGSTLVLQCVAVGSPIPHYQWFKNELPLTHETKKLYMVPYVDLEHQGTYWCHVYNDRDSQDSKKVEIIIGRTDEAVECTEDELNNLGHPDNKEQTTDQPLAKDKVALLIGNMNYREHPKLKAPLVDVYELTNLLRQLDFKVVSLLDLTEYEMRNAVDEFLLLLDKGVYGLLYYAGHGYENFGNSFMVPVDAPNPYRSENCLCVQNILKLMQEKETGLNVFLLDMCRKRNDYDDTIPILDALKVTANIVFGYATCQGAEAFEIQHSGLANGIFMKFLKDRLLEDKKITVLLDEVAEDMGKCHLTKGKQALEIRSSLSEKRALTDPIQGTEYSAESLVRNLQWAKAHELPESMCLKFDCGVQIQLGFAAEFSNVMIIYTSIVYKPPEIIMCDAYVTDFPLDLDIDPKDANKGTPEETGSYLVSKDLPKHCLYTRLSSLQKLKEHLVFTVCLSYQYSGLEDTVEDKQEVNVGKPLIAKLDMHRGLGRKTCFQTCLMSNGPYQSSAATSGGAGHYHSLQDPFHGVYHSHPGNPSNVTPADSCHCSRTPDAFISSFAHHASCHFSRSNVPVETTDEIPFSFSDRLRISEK

For the compound `CC(C)Cc1c(C(=O)Nc2cnc(-n3nccn3)c(Cl)c2)cnn1-c1cccc2ncccc12` [Cpd 16, N-(5-Chloro-6-(2H-1,2,3-triazol-2-yl)pyridin-3-yl)-5-isobutyl-1-(quinolin-5-yl)-1H-pyrazole-4-carboxamide], the IC50 amounted to 0.724 µM in test [1], 1.48 µM in test [2], 10.7 µM in the test on TMD8 cells and 0.58 µM in the test with OCI-Ly3 cells.

For the compound `Cn1ccc(-c2ncc(NC(=O)c3cnn(-c4cccc5ccncc45)c3C(F)(F)F)cc2Cl)n1` [Cpd 21, N-(5-Chloro-6-(1-methyl-1H-pyrazol-3-yl)pyridin-3-yl)-1-(isoquinolin-8-yl)-5-(trifluoromethyl)-1H-pyrazole-4-carboxamide], the IC50 in test [1] was 1.45 µM; in test [2] it was greater than 15 µM; with TMD8 cells, greater than 20 µM; with OCI-Ly3 cells it was roughly 12.9 µM.

Turning to `Cc1ccc2ncccc2c1-n1ncc(C(=O)Nc2cnc(-n3nccn3)c(Cl)c2)c1C(F)(F)F` [Cpd 27, N-(5-Chloro-6-(2H-1,2,3-triazol-2-yl)pyridin-3-yl)-1-(6-methylquinolin-5-yl)-5-(trifluoromethyl)-1H-pyrazole-4-carboxamide], the IC50 in test [1] was found to be 0.035 µM; in test [2], 0.105 µM; in the test with TMD8 cells it was 13.8 µM; with OCI-Ly3 cells, 1.95 µM.

As to `Cc1cncc2c(-n3ncc(C(=O)Nc4cnc(-n5nccn5)c(Cl)c4)c3C(F)(F)F)cccc12` [Cpd 33, N-(5-Chloro-6-(2H-1,2,3-triazol-2-yl)pyridin-3-yl)-1-(4-methylisoquinolin-8-yl)-5-(trifluoromethyl)-1H-pyrazole-4-carboxamide], the IC50 in test [1] was 1.1 µM; in test [2], 7.41 µM; with TMD8 cells, greater than 20 µM; in the test on OCI-Ly3 cells, greater than 20 µM; in test [3] it was 1.05 µM.

For the compound `O=C(Nc1cnc(-n2nccn2)c(Cl)c1)c1cnn(-c2nccc3ccccc23)c1C(F)F` [Cpd 56, N-(5-Chloro-6-(2H-1,2,3-triazol-2-yl)pyridin-3-yl)-5-(difluoromethyl)-1-(isoquinolin-1-yl)-1H-pyrazole-4-carboxamide], the IC50 in test [1] was 0.257 µM; in test [2], 0.49 µM; with TMD8 cells, greater than 20 µM; in the test on OCI-Ly3 cells, 0.54 µM; in test [3] it was 0.275 µM.

Take `O=C(Nc1cnc(-n2nccn2)c(Cl)c1)c1cnn(-c2nccc3ccccc23)c1C(F)(F)F` [Cpd 57, N-(5-chloro-6-(2H-1,2,3-triazol-2-yl)pyridin-3-yl)-1-(isoquinolin-1-yl)-5-(trifluoromethyl)-1H-pyrazole-4-carboxamide]: the IC50 in test [1] was 0.043 µM; in test [2] it was 0.081 µM; with TMD8 cells, roughly 8.91 µM; in the test with OCI-Ly3 cells, 0.22 µM; in test [3], 0.085 µM.

For the compound `Nc1nccc(-c2ccc(NC(=O)c3cnn(-c4cncc5ccccc45)c3C(F)(F)F)cc2Cl)n1` [Cpd 58, N-(4-(2-Aminopyrimidin-4-yl)-3-chlorophenyl)-1-(isoquinolin-4-yl)-5-(trifluoromethyl)-1H-pyrazole-4-carboxamide], the IC50 in test [1] turned out to be 0.141 µM; in test [2] it was 0.331 µM; in the test on TMD8 cells, 4.47 µM; in the test on OCI-Ly3 cells, 0.5 µM; in test [3], 0.288 µM.

For `N#Cc1cc(NC(=O)c2cnn(-c3cncc4ccccc34)c2C(F)(F)F)ccc1-n1nccn1` [Cpd 59, N-(3-Cyano-4-(2H-1,2,3-triazol-2-yl)phenyl)-1-(isoquinolin-4-yl)-5-(trifluoromethyl)-1H-pyrazole-4-carboxamide], the IC50 in test [1] was found to be 0.031 µM; in test [2], 0.068 µM; in the test with TMD8 cells it was 6.76 µM; with OCI-Ly3 cells, 0.14 µM; in test [3], 0.074 µM.

With `O=C(Nc1cnc(-n2nccn2)c(F)c1)c1cnn(-c2cncc3ccccc23)c1C(F)(F)F` [Cpd 61, N-(5-fluoro-6-(2H-1,2,3-triazol-2-yl)pyridin-3-yl)-1-(isoquinolin-4-yl)-5-(trifluoromethyl)-1H-pyrazole-4-carboxamide], the IC50 was 0.102 µM in test [1]; 0.263 µM in test [2]; roughly 14.1 µM in the test with TMD8 cells; 1.26 µM with OCI-Ly3 cells; 0.224 µM in test [3].

As for `N#Cc1cc(NC(=O)c2cnn(-c3cncc4ccccc34)c2C(F)(F)F)ccc1-n1ccnn1` [Cpd 62, N-(3-cyano-4-(1H-1,2,3-triazol-1-yl)phenyl)-1-(isoquinolin-4-yl)-5-(trifluoromethyl)-1H-pyrazole-4-carboxamide], the IC50 amounted to 0.059 µM in test [1]; 0.112 µM in test [2]; 10 µM in the test with TMD8 cells; 0.23 µM in the test with OCI-Ly3 cells; 0.085 µM in test [3].

For `Cc1cnc2cccc(-n3ncc(C(=O)Nc4cnc(-n5nccn5)c(Cl)c4)c3C(F)(F)F)c2c1` [Cpd 65, N-(5-Chloro-6-(2H-1,2,3-triazol-2-yl)pyridin-3-yl)-1-(3-methylquinolin-5-yl)-5-(trifluoromethyl)-1H-pyrazole-4-carboxamide], the IC50 in test [1] was 0.06 µM; in test [2], 0.282 µM; in the test on TMD8 cells, 10.2 µM; in the test with OCI-Ly3 cells it was 0.26 µM; in test [3], 0.12 µM.

`Cc1ncc(-n2ncc(C(=O)Nc3cnc(-n4nccn4)c(Cl)c3)c2C(F)(F)F)c2ccccc12` [Cpd 66, N-(5-chloro-6-(2H-1,2,3-triazol-2-yl)pyridin-3-yl)-1-(1-methylisoquinolin-4-yl)-5-(trifluoromethyl)-1H-pyrazole-4-carboxamide]: the IC50 in test [1] is 0.069 µM; in test [2], 0.331 µM; with TMD8 cells, roughly 8.71 µM; in the test on OCI-Ly3 cells, 0.81 µM; in test [3], 0.132 µM.

For `O=C(Nc1cnc(-n2nccn2)c(Cl)c1)c1cnn(-c2cccc3[nH]ncc23)c1C(F)(F)F` [Cpd 68, N-(5-Chloro-6-(2H-1,2,3-triazol-2-yl)pyridin-3-yl)-1-(1H-indazol-4-yl)-5-(trifluoromethyl)-1H-pyrazole-4-carboxamide], the IC50 in test [1] is 0.151 µM; in test [2], 0.417 µM; in the test on TMD8 cells it was roughly 19.1 µM; in the test with OCI-Ly3 cells, 0.37 µM; in test [3] it was 0.257 µM.

Regarding `O=C(Nc1cnc(-c2nnco2)c(Cl)c1)c1cnn(-c2cncc3ccccc23)c1C(F)(F)F` [Cpd 69, N-(5-Chloro-6-(1,3,4-oxadiazol-2-yl)pyridin-3-yl)-1-(isoquinolin-4-yl)-5-(trifluoromethyl)-1H-pyrazole-4-carboxamide], the IC50 was 0.06 µM in test [1]; 0.058 µM in test [2]; roughly 16.2 µM in the test with TMD8 cells; 0.43 µM with OCI-Ly3 cells; 0.063 µM in test [3].

On to `N#Cc1cc(NC(=O)c2cnn(-c3ccnc4ccsc34)c2C(F)(F)F)cnc1-n1nccn1` [Cpd 128, N-(5-cyano-6-(2H-1,2,3-triazol-2-yl)pyridin-3-yl)-1-(thieno[3,2-b]pyridin-7-yl)-5-(trifluoromethyl)-1H-pyrazole-4-carboxamide], for which the IC50 in test [1] is 0.016 µM; in test [2] it was 0.095 µM; in test [4], 0.036 µM; with OCI-Ly3 cells, 0.188 µM; in test [5] it was 0.027 µM; in test [3], 0.105 µM.

With `Cc1csc2c(-n3ncc(C(=O)Nc4cnc(-n5nccn5)c(C#N)c4)c3C(F)(F)F)ccnc12` [Cpd 310, N-(5-cyano-6-(2H-1,2,3-triazol-2-yl)pyridin-3-yl)-1-(3-methylthieno[3,2-b]pyridin-7-yl)-5-(trifluoromethyl)-1H-pyrazole-4-carboxamide], the IC50 amounted to 0.052 µM in test [1], 0.49 µM in test [4], 1.27 µM in the test on OCI-Ly3 cells and 0.646 µM in test [5].

Consider `O=C(Nc1cnc(-n2nccn2)c(Cl)c1)c1cnn(-c2cccc3cnccc23)c1C(F)(F)F` [Cpd 449, N-(5-chloro-6-(2H-1,2,3-triazol-2-yl)pyridin-3-yl)-1-(isoquinolin-5-yl)-5-(trifluoromethyl)-1H-pyrazole-4-carboxamide], for which the IC50 in test [1] was found to be 0.023 µM; in test [2], 0.078 µM; in test [4] it was 0.068 µM; in test [5], 0.1 µM; in test [3], 0.098 µM.
